From US4061737A, “Method for stimulating release of prolactin” (American Home Products Corporation, priority 1976, dated 1977)

Legend:
[1] = tested on: mouse vas deferens; conditions: cited from earlier work
[2] = tested on: rat pituitary cells; assay: Prolactin release in monolayer cultures of rat pituitary cells; assay type: cell-based; conditions: for Prolactin release versus control (in words): all levels from 5 ng/ml to 50 μg/ml; for Prolactin Release (mean ± SEM): 3 hours at 37° C., control 197 ± 13
Experimental: Monolayer cultures of enzymatically dispersed pituitary cells were prepared from male rats, using Eagle's minimal essential medium for growth. After incubation in triplicate dishes for 3 hours at 37° C. in 95% air: 5% CO2, the supernatant from each dish was assayed for prolactin in duplicate.

[3] = tested on: Male Charles River CD rats; assay: Prolactin plasma levels in rats 15 minutes after enkephalin injection (radioimmunoassay); assay type: in vivo, rat; conditions: for Change in prolactin levels upon injection (in words): 5 mg/kg., subcutaneous or intravenous
Experimental: Male Charles River CD rats were injected with the enkephalin (in saline) or saline alone either subcutaneously or intravenously via the femoral vein. Fifteen minutes later the animals were decapitated and blood collected (12 mg. versene and 6000 units of Trasylol added per tube). Each plasma sample was assayed for prolactin in quadruplicate by specific double antibody radioimmunoassays, using NIAMDD reagents and the procedure of Neill and Reichert, Endocrinology, 88, 548 (1971).

[4] = tested on: guinea pig ileum; conditions: cited from earlier work
[5] = tested on: opiate receptor sites; conditions: cited from earlier work
[6] = in vivo; cited from earlier work
[7] = Experiment 2, 5mg/kg. SC, 15 minutes after injection, control 40 ± 3

Row | Structure (SMILES) | Contractions of mouse vas deferens (in words) [1] | Prolactin release versus control (in words) [2] | Prolactin release compared with leucine-enkephalin (in words) ([2]; difference statistically significant at 50 μg/ml and 500 ng/ml) | Prolactin Release (mean ± SEM) ([2]; enkephalin 5 ng/ml) [ng/mL] | Prolactin Release (mean ± SEM) ([2]; enkephalin 50 ng/ml) [ng/mL] | Prolactin Release (mean ± SEM) ([2]; enkephalin 500 ng/ml) [ng/mL] | Prolactin Release (mean ± SEM) ([2]; enkephalin 5 μg/ml) [ng/mL] | Prolactin Release (mean ± SEM) ([2]; enkephalin 50 μg/ml) [ng/mL] | Change in prolactin levels upon injection (in words) [3] | Prolactin plasma level (mean ± SEM) [3, 7] [ng/mL] | Prolactin plasma level (mean ± SEM) ([3]; Experiment 3, 5mg/kg. IV, 15 minutes after injection, control 20 ± 1) [ng/mL] | Prolactin plasma level (mean ± SEM) ([3]; rat, in vivo) | Contractions of guinea pig ileum (in words) [4] | Stereospecific binding of 3H-naloxone to guinea pig brain (in words) [5] | Prolactin plasma level (mean ± SEM) ([3]; Experiment 1, 5mg/kg. SC, 15 minutes after injection, control 29 ± 3) [ng/mL] | Prolactin plasma level (mean ± SEM) ([3]; Experiment 4, 5mg/kg. IV, 15 minutes after injection, control 43 ± 7) [ng/mL] | Prolactin plasma level (mean ± SEM) ([3]; Experiment 5, 5mg/kg. IV, 15 minutes after injection, control 31 ± 3) [ng/mL] | Prolactin plasma level (mean ± SEM) ([3]; Experiment 6, 5mg/kg. IV, 15 minutes after injection, control 47 ± 5) [ng/mL] | Prolactin plasma level (mean ± SEM) ([3]; Experiment 8, 5mg/kg. IV, 15 minutes after injection, control 63 ± 10) [ng/mL] | Prolactin levels (in words) [6]
1 | CSCC[C@H](NC(=O)[C@H](Cc1ccccc1)NC(=O)CNC(=O)CNC(=O)[C@@H](N)Cc1ccc(O)cc1)C(=O)O [Met-Enkephalin, H-Tyr-Gly-Gly-Phe-Met-OH] | inhibit | significantly increased | greater release of prolactin than leucine-enkephalin | 261 ± 15 | 257 ± 14 | 305 ± 14 | 255 ± 10 | 307 ± 8 | consistent, statistically significant increase | 49 ± 3 | 24 ± 1 | 43 ± 3 | inhibit | inhibit | – | – | – | – | – | –
2 | CC(C)C[C@H](NC(=O)[C@H](Cc1ccccc1)NC(=O)CNC(=O)CNC(=O)[C@@H](N)Cc1ccc(O)cc1)C(=O)O [Leu-Enkephalin, H-Tyr-Gly-Gly-Phe-Leu-OH] | inhibit | significantly increased | – | 247 ± 7 | 254 ± 14 | 253 ± 18 | 244 ± 10 | 260 ± 15 | more variable | 40 ± 3 | – | – | inhibit | inhibit | 40 ± 6 | 29 ± 5 | 55 ± 5 | 59 ± 11 | 61 ± 10 | –
3 | CN1CC[C@]23c4c5ccc(O)c4O[C@H]2[C@@H](O)C=C[C@H]3[C@H]1C5 [morphine, reference compound] | also elicited by morphine | – | – | – | – | – | – | – | – | – | – | – | also elicited by morphine | – | – | – | – | – | – | can raise prolactin levels
